# From PubChem BioAssay AID2060601 (Molecular Pharmacology Branch, DTP, NCI, 2025)
# System: 874868-142-R-J2-PDC complex spheroids, growth % test/control
# Experiment: Anticancer human tumor 874868-142-R-J2-PDC patient-derived head and neck squamous carcinoma cell line growth inhibition [CLK]
# Details: for IC50: curve of first compound; for viability, T/C: stronger effect = lower value
# In short: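 Multi-cell-type spheroids combined patient-derived tumor cells with HUVEC endothelial cells and human mesenchymal stem cells. Paired agents were dosed in half-log steps down from about clinical Cmax, or from 10 microM where Cmax was unknown.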
# [1] = second compound 0.0316 µM, first compound 0.0316 µM
# [2] = second compound 0.0316 µM, first compound 0.1 µM
# [3] = second compound 0.0316 µM, first compound 0.316 µM
# [4] = second compound 0.0316 µM, first compound 1 µM
# [5] = second compound 0.1 µM, first compound 0.0316 µM
# [6] = second compound 0.1 µM, first compound 0.1 µM
# [7] = second compound 0.1 µM, first compound 0.316 µM
# [8] = second compound 0.1 µM, first compound 1 µM
# [9] = second compound 0.316 µM, first compound 0.0316 µM
# [10] = second compound 0.316 µM, first compound 0.1 µM
# [11] = second compound 0.316 µM, first compound 0.316 µM
# [12] = second compound 0.316 µM, first compound 1 µM
# [13] = second compound 1 µM, first compound 0.0316 µM
# [14] = second compound 1 µM, first compound 0.1 µM
# [15] = second compound 1 µM, first compound 0.316 µM
# [16] = second compound 1 µM, first compound 1 µM
# [17] = second compound 3.16 µM, first compound 0.0316 µM
# [18] = second compound 3.16 µM, first compound 0.1 µM
# [19] = second compound 3.16 µM, first compound 0.316 µM
# [20] = second compound 3.16 µM, first compound 1 µM
# [21] = second compound 10 µM, first compound 0.0316 µM
# [22] = second compound 10 µM, first compound 0.1 µM
# [23] = second compound 10 µM, first compound 0.316 µM
# [24] = second compound 10 µM, first compound 1 µM
# 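Note: spheroids exposed to the compounds for 7 days.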
# 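Throughout, for viability, T/C: 100% = DMSO vehicle control viability.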
compound,measurement,setting,value
CC(=O)O[C@H]1C(=O)[C@@]2(C)[C@H]([C@H](OC(=O)c3ccccc3)[C@]3(O)C[C@H](OC(=O)[C@H](O)[C@@H](NC(=O)c4ccccc4)c4ccccc4)C(C)=C1C3(C)C)[C@]1(OC(C)=O)CO[C@@H]1C[C@@H]2O + CN1CCN(c2cc(C(=O)Nc3cc4cc(-c5cnn(C)c5)ccc4cn3)ccn2)CC1,IC50,second compound 0.0316 µM,< 31.6 nM
same,IC50,second compound 0.1 µM,< 31.6 nM
same,IC50,second compound 0.316 µM,< 31.6 nM
same,IC50,second compound 1 µM,< 31.6 nM
same,IC50,second compound 3.16 µM,< 31.6 nM
same,IC50,second compound 10 µM,< 31.6 nM
same,"viability, T/C",[1],26.6%
same,"viability, T/C",[2],18.9%
same,"viability, T/C",[3],19.1%
same,"viability, T/C",[4],22%
same,"viability, T/C","second compound 0.0316 µM, first compound 3.16 µM",21.3%
same,"viability, T/C","second compound 0.0316 µM, first compound 10 µM",27.4%
same,"viability, T/C",[5],28.1%
same,"viability, T/C",[6],19.6%
same,"viability, T/C",[7],20%
same,"viability, T/C",[8],18.1%
same,"viability, T/C","second compound 0.1 µM, first compound 3.16 µM",14.7%
same,"viability, T/C","second compound 0.1 µM, first compound 10 µM",27.9%
same,"viability, T/C",[9],13%
same,"viability, T/C",[10],15.6%
same,"viability, T/C",[11],15.3%
same,"viability, T/C",[12],9.43%
same,"viability, T/C","second compound 0.316 µM, first compound 3.16 µM",17.7%
same,"viability, T/C","second compound 0.316 µM, first compound 10 µM",17.3%
same,"viability, T/C",[13],0.22%
same,"viability, T/C",[14],0.23%
same,"viability, T/C",[15],0.5%
same,"viability, T/C",[16],0.59%
same,"viability, T/C","second compound 1 µM, first compound 3.16 µM",0.23%
same,"viability, T/C","second compound 1 µM, first compound 10 µM",0.27%
same,"viability, T/C",[17],0.16%
same,"viability, T/C",[18],0.16%
same,"viability, T/C",[19],2.82%
same,"viability, T/C",[20],0.21%
same,"viability, T/C","second compound 3.16 µM, first compound 3.16 µM",0.18%
same,"viability, T/C","second compound 3.16 µM, first compound 10 µM",0.15%
same,"viability, T/C",[21],0.12%
same,"viability, T/C",[22],0.18%
same,"viability, T/C",[23],1.66%
same,"viability, T/C",[24],0.18%
same,"viability, T/C","second compound 10 µM, first compound 3.16 µM",2.53%
same,"viability, T/C","second compound 10 µM, first compound 10 µM",1.6%
CCc1c2c(nc3ccc(O)cc13)-c1cc3c(c(=O)n1C2)COC(=O)[C@]3(O)CC + CN1CCN(c2cc(C(=O)Nc3cc4cc(-c5cnn(C)c5)ccc4cn3)ccn2)CC1,IC50,second compound 0.0316 µM,< 3.16 nM
same,IC50,second compound 0.1 µM,< 3.16 nM
same,IC50,second compound 0.316 µM,< 3.16 nM
same,IC50,second compound 1 µM,< 3.16 nM
same,IC50,second compound 3.16 µM,< 3.16 nM
same,IC50,second compound 10 µM,< 3.16 nM
same,"viability, T/C","second compound 0.0316 µM, first compound 0.00316 µM",40.3%
same,"viability, T/C","second compound 0.0316 µM, first compound 0.01 µM",37.1%
same,"viability, T/C",[1],26.8%
same,"viability, T/C",[2],16.6%
same,"viability, T/C",[3],7.13%
same,"viability, T/C",[4],1.61%
same,"viability, T/C","second compound 0.1 µM, first compound 0.00316 µM",31.4%
same,"viability, T/C","second compound 0.1 µM, first compound 0.01 µM",24.2%
same,"viability, T/C",[5],11.6%
same,"viability, T/C",[6],8.69%
same,"viability, T/C",[7],2.29%
same,"viability, T/C",[8],0.34%
same,"viability, T/C","second compound 0.316 µM, first compound 0.00316 µM",12.2%
same,"viability, T/C","second compound 0.316 µM, first compound 0.01 µM",7.89%
same,"viability, T/C",[9],5.11%
same,"viability, T/C",[10],1.25%
same,"viability, T/C",[11],0.46%
same,"viability, T/C",[12],0.22%
same,"viability, T/C","second compound 1 µM, first compound 0.00316 µM",0.28%
same,"viability, T/C","second compound 1 µM, first compound 0.01 µM",0.16%
same,"viability, T/C",[13],0.25%
same,"viability, T/C",[14],0.19%
same,"viability, T/C",[15],0.39%
same,"viability, T/C",[16],0.11%
same,"viability, T/C","second compound 3.16 µM, first compound 0.00316 µM",0.18%
same,"viability, T/C","second compound 3.16 µM, first compound 0.01 µM",0.16%
same,"viability, T/C",[17],0.32%
same,"viability, T/C",[18],0.27%
same,"viability, T/C",[19],0.19%
same,"viability, T/C",[20],0.11%
same,"viability, T/C","second compound 10 µM, first compound 0.00316 µM",0.07%
same,"viability, T/C","second compound 10 µM, first compound 0.01 µM",3.98%
same,"viability, T/C",[21],0.4%
same,"viability, T/C",[22],0.15%
same,"viability, T/C",[23],0.19%
same,"viability, T/C",[24],0.19%
